Measured values: patent US20250179061A1 (SIRONAX LTD., priority 2022, published 2025)

What follows are molecules tested on HT-29 cells (assay: HT-29 necroptosis cell viability assay (TNF-α/SMAC mimetic/zVAD-FMK, CellTiter-Glo)). Conditions: Homo sapiens; HT-29 cells stimulated with TNF-α (10 ng/ml), SMAC mimetic (6 μM) and zVAD-FMK (10 μM); 20 hours; CellTiter-Glo ATP luminescence; geometric mean IC50 from 10 points; read-out: Activity.
Format: cell-based
Description: Compounds 1-702 of the disclosure were tested for biological activity, following the experimental procedures described below.
• Cell line: HT-29 (ATCC® HTB-38™) • Culture medium: McCOY's 5A, Gibco, Cat No. 16600-082 • FBS, Gibco, Cat No. 10099-141 C • Trypsin: Gibco, Cat No. 25200-056 • DMSO: Sigma, Cat No. 67-68-5, 1L • Assay plate: Corning #3903 • Compound dilution plate: Corning #3357 • Inducers: TNFα, GenScript, Cat No. Z01001-50, • SmacM, Cat. No., HY-15989, MedChemExpress (MCE) • Z_VAD FMK, TargetMol, T6013 • Cell Titer-Glo® Luminescent Cell Viability Assay Kit: Promega, Cat No. G7573 • EnVision: PerkinElmer, 2105-0010
• 1. HT-29 cells were checked every day to make sure that they were healthy and growing as expected. They were subjected to sub-culturing when they were approximately 80% confluent. • 2. The culture medium, McCOY's 5A medium (Gibco, Cat No. 16600-082) with 10% fetal bovine serum or FBS (Gibco, Cat No. 10099-141C), was pre-warmed in a 37° C. water bath for at least 30 min. • 3. When the cells had reached a desired level of confluency of 80% in a T75 flask, the medium was aspirated, and the cells were washed with warm phosphate buffered saline or PBS two times. • 4. 2-3 ml fresh warm trypsin (Gibco, Cat No. 25200-056) solution was added to the washed cells. The flask with the cells was transferred to a 37° C. incubator. • 5. After 5 minutes, the side of the flask was tapped, and the flask was examined under a microscope for detachment of the cells to the flask. If necessary, the cells were kept in the incubator for an additional 5-10 minutes, with occasional tapping, until lifting was complete. • 6. The trypsin reaction was neutralized by transferring 6-9 ml cell culture medium to sterile 15 ml conical tubes, and by centrifuging the cell culture at 300×g for 7 minutes to pellet the cells (supernatant decanted). • 7. The cells were resuspended in fresh cell culture medium and the cell counting was performed using a hemocytometer. • 8. 100 μl of the resuspended cell culture medium containing ˜5,000 cells were transferred into each well of the sterile 96-well cell culture plate (Corning 3903) and cultured overnight at 37° C. with 5% CO2.
• 1. All test compounds were dissolved in DMSO (Dimethyl sulfoxide) to create a 20 mM stock. • 2. 3 μl of 20 mM stock of each compound was mixed with 27 μl DMSO, and the compound solution was further diluted at a titration ratio of 1:3 (20 μl compound solution+40 μl DMSO) till the 10 points end. • 3. All culture medium was removed from assay plates filled with HT-29 cell cultures. The cells were then washed with 1 PBS, and resuspsended in fresh, FBS-free McCOY's 5A medium containing a cocktail of TNF-α (10 ng/ml), a SMAC mimetic compound (6 μM) and Z-VAD-fluoromethylketone or zVAD-FMK (10 μM) to stimulate the HT-29 cells to increase RIP1 kinase levels and necroptosis. • 4. 0.5 μL of the diluted compound solution was added to the corresponding 96-well assay plates. • 5. The assay plates were incubated for 20 hours at 37° C. with 5% CO2.
• 1. The CellTiter-Glo® Luminescent Cell Viability Assay was employed to detect the ATP levels of viable HT-29 cells. • 2. The CellTiter-Glo® buffer and the lyophilized substrate were equilibrated to room temperature prior to use. • 3. The CellTiter-Glo® substrate was resuspended with CellTiter-Glo® buffer, then mixed by gently vortexing to obtain a homogeneous solution. • 4. 20 μl of the enzyme/substrate mixture was transferred by multi-channel pipetting into 96-well assay plates. • 5. The assay plates were placed on an orbital shaker and the contents were shaken for 3 minutes to induce cell lysis. • 6. The assay plates were incubated at room temperature for 10 minutes to stabilize the luminescent signal. • 7. The luminescence signals were read and recorded with EnVision. • 8. The geometric mean IC50 values were calculated from 10 points response dose with duplicates. […]
`Cn1nc(C(N)=O)cc1Oc1ccc(-n2nc3n(c2=O)C(c2ccccc2)CC3)cc1F` (stereo not shown) [Example 29, 5-(2-fluoro-4-(3-oxo-5-phenyl-6,7-dihydro-3H-pyrrolo[2,1-c][1,2,4]triazol-2(5H)-yl)phenoxy)-1-methyl-1H-pyrazole-3-carboxamide] showed an IC50 of less than 100 nM.
Molecule `Cc1nc(C(N)=O)sc1Oc1ccc(-n2ncn(Cc3cnccc3Cl)c2=O)cc1F` [Example 31, 5-(4-(4-((4-chloropyridin-3-yl)methyl)-5-oxo-4,5-dihydro-1H-1,2,4-triazol-1-yl)-2-fluorophenoxy)-4-methylthiazole-2-carboxamide] has an IC50 of less than 100 nM.
Molecule `COC(=O)c1nc(C)c(Oc2ccc(-n3ncn(Cc4ncccc4F)c3=O)cc2F)s1` [Example 32] has an IC50 of 100 to 1000 nM.
`COC(=O)c1nc(C)c(Oc2ccc(-n3ncn(Cc4ncccc4C#N)c3=O)cc2F)s1` [Example 33, methyl 5-(4-(4-((3-cyanopyridin-2-yl)methyl)-5-oxo-4,5-dihydro-1H-1,2,4-triazol-1-yl)-2-fluorophenoxy)-4-methylthiazole-2-carboxylate] was tested, and the IC50 was 100 to 1000 nM.
`COC(=O)c1nc(C)c(Oc2ccc(-n3nc4n(c3=O)C(c3ccccc3)CC4)cc2F)s1` (stereo not shown) [Example 34, methyl 5-(2-fluoro-4-(3-oxo-5-phenyl-6,7-dihydro-3H-pyrrolo[2,1-c][1,2,4]triazol-2(5H)-yl)phenoxy)-4-methylthiazole-2-carboxylate] showed an IC50 of 100 to 1000 nM.
`Cc1nc(C#N)sc1Oc1ccc(-n2ncn(Cc3ncccc3Cl)c2=O)cc1F` [Example 37, 5-(4-(4-((3-chloropyridin-2-yl)methyl)-5-oxo-4,5-dihydro-1H-1,2,4-triazol-1-yl)-2-fluorophenoxy)-4-methylthiazole-2-carbonitrile] was tested, and the IC50 was less than 100 nM.
`Cc1nc(C#N)sc1Oc1ccc(-n2ncn(Cc3cnccc3Cl)c2=O)cc1F` [Example 38, 5-(4-(4-((4-chloropyridin-3-yl)methyl)-5-oxo-4,5-dihydro-1H-1,2,4-triazol-1-yl)-2-fluorophenoxy)-4-methylthiazole-2-carbonitrile] showed an IC50 of less than 100 nM.
Work on `Cc1nc(C2CC(C#N)C2)sc1Oc1ccc(-n2ncn(Cc3c(F)cccc3F)c2=O)cc1` (stereo not shown) [Example 39, 3-(5-(4-(4-(2,6-difluorobenzyl)-5-oxo-4,5-dihydro-1H-1,2,4-triazol-1-yl)phenoxy)-4-methylthiazol-2-yl)cyclobutane-1-carbonitrile] yielded an IC50 of less than 100 nM.
For `Cc1nc(C2CC(C#N)C2)sc1Oc1ccc(-n2ncn(Cc3c(F)cccc3F)c2=O)cc1F` (stereo not shown) [Example 40, 3-(5-(4-(4-(2,6-difluorobenzyl)-5-oxo-4,5-dihydro-1H-1,2,4-triazol-1-yl)-2-fluorophenoxy)-4-methylthiazol-2-yl)cyclobutane-1-carbonitrile], the IC50 was less than 100 nM.
`Cc1nc(C2CN(C(=O)OC(C)(C)C)C2)sc1Oc1ccc(-n2ncn(Cc3c(F)cccc3F)c2=O)cc1F` [Example 41, tert-butyl 3-(5-(4-(4-(2,6-difluorobenzyl)-5-oxo-4,5-dihydro-1H-1,2,4-triazol-1-yl)-2-fluorophenoxy)-4-methylthiazol-2-yl)azetidine-1-carboxylate] showed an IC50 of less than 100 nM.
Work on `Cc1nc(C2COC2)sc1Oc1ccc(-n2ncn(Cc3c(F)cccc3F)c2=O)cc1` [Example 42, 4-(2,6-difluorobenzyl)-2-(4-((4-methyl-2-(oxetan-3-yl)thiazol-5-yl)oxy)phenyl)-2,4-dihydro-3H-1,2,4-triazol-3-one] yielded an IC50 of less than 100 nM.
For `Cc1nc(N2C[C@@H](C#N)[C@@H]2C)sc1Oc1ccc(-n2ncn(Cc3c(F)cccc3F)c2=O)cc1` [Example 43, (2S,3R)-1-(5-(4-(4-(2,6-difluorobenzyl)-5-oxo-4,5-dihydro-1H-1,2,4-triazol-1-yl)phenoxy)-4-methylthiazol-2-yl)-2-methylazetidine-3-carbonitrile], the IC50 was less than 100 nM.
`Cc1nc(N2C[C@H](C#N)[C@@H]2C)sc1Oc1ccc(-n2ncn(Cc3c(F)cccc3F)c2=O)cc1` [Example 44, (2S,3S)-1-(5-(4-(4-(2,6-difluorobenzyl)-5-oxo-4,5-dihydro-1H-1,2,4-triazol-1-yl)phenoxy)-4-methylthiazol-2-yl)-2-methylazetidine-3-carbonitrile] was tested, and the IC50 was less than 100 nM.
`Cc1nc(NC23CC(C#N)(C2)C3)sc1Oc1ccc(-n2ncn(Cc3c(F)cccc3F)c2=O)cc1` [Example 45, 3-((5-(4-(4-(2,6-difluorobenzyl)-5-oxo-4,5-dihydro-1H-1,2,4-triazol-1-yl)phenoxy)-4-methylthiazol-2-yl)amino)bicyclo[1.1.1]pentane-1-carbonitrile] was tested, and the IC50 was less than 100 nM.
Work on `Cc1nc(N2CC(C)(C#N)C2)sc1Oc1ccc(-n2ncn(Cc3c(F)cccc3F)c2=O)cc1` [Example 46, 1-(5-(4-(4-(2,6-difluorobenzyl)-5-oxo-4,5-dihydro-1H-1,2,4-triazol-1-yl)phenoxy)-4-methylthiazol-2-yl)-3-methylazetidine-3-carbonitrile] yielded an IC50 of less than 100 nM.
`Cc1nc(N2CC(OC3CC3)C2)sc1Oc1ccc(-n2ncn(Cc3c(F)cccc3F)c2=O)cc1` [Example 47, 2-(4-((2-(3-cyclopropoxyazetidin-1-yl)-4-methylthiazol-5-yl)oxy)phenyl)-4-(2,6-difluorobenzyl)-2,4-dihydro-3H-1,2,4-triazol-3-one] gave an IC50 of less than 100 nM.
`Cc1nc(N2CC(C#N)C2C)sc1Oc1ccc(-n2ncn(Cc3c(F)cccc3F)c2=O)cc1` (stereo not shown) [Example 48, 1-(5-(4-(4-(2,6-difluorobenzyl)-5-oxo-4,5-dihydro-1H-1,2,4-triazol-1-yl)phenoxy)-4-methylthiazol-2-yl)-2-methylazetidine-3-carbonitrile] was tested, and the IC50 was less than 100 nM.
In the case of `Cc1nc(N2CC(OC(F)F)C2)sc1Oc1ccc(-n2ncn(Cc3c(F)cccc3F)c2=O)cc1` [Example 49, 4-(2,6-difluorobenzyl)-2-(4-((2-(3-(difluoromethoxy)azetidin-1-yl)-4-methylthiazol-5-yl)oxy)phenyl)-2,4-dihydro-3H-1,2,4-triazol-3-one], the IC50 is reported as less than 100 nM.
`Cc1nc(N2C[C@@H](O)[C@@H]2C)sc1Oc1ccc(-n2ncn(Cc3c(F)cccc3F)c2=O)cc1` [Example 50, 4-(2,6-difluorobenzyl)-2-(4-((2-((2S,3R)-3-hydroxy-2-methylazetidin-1-yl)-4-methylthiazol-5-yl)oxy)phenyl)-2,4-dihydro-3H-1,2,4-triazol-3-one] showed an IC50 of less than 100 nM.
Molecule `Cc1nc(N2C[C@H](F)[C@@H]2C)sc1Oc1ccc(-n2ncn(Cc3c(F)cccc3F)c2=O)cc1` [Example 51, 4-(2,6-difluorobenzyl)-2-(4-((2-((2S,3S)-3-fluoro-2-methylazetidin-1-yl)-4-methylthiazol-5-yl)oxy)phenyl)-2,4-dihydro-3H-1,2,4-triazol-3-one] has an IC50 of less than 100 nM.
Work on `Cc1nc(N2CC([C@H](C)O)C2)sc1Oc1ccc(-n2ncn(Cc3c(F)cccc3F)c2=O)cc1` [Example 52, (S)-4-(2,6-difluorobenzyl)-2-(4-((2-(3-(1-hydroxyethyl)azetidin-1-yl)-4-methylthiazol-5-yl)oxy)phenyl)-2,4-dihydro-3H-1,2,4-triazol-3-one] yielded an IC50 of less than 100 nM.
`Cc1nc(N2CC(C#N)C2)sc1Oc1ccc(-n2ncn(Cc3c(F)cccc3F)c2=O)cc1` [Example 53, 1-(5-(4-(4-(2,6-difluorobenzyl)-5-oxo-4,5-dihydro-1H-1,2,4-triazol-1-yl)phenoxy)-4-methylthiazol-2-yl)azetidine-3-carbonitrile] was tested, and the IC50 was less than 100 nM.
